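Five compound concentrations were applied to cells in 96-well plates for 48 hours; endpoints were derived by simple linear interpolation of the resulting dose-response curve. GI50 = concentration required for 50% inhibition of growth. TGI denotes the concentration required for complete inhibition of growth.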
Tests used:
Test in all cases: NCI anticancer screen, dose series, 48 h
DLD-1 colon = test system: DLD-1 colon
SF-295 CNS = test system: SF-295 CNS
OVCAR-8 ovarian = test system: OVCAR-8 ovarian
OVCAR-3 ovarian = test system: OVCAR-3 ovarian
CCRF-CEM leukemia = test system: CCRF-CEM leukemia
DMS 273 small cell lung = test system: DMS 273 small cell lung
OVCAR-4 ovarian = test system: OVCAR-4 ovarian
LXFL 529 NSCLC = test system: LXFL 529 NSCLC
MCF7 breast = test system: MCF7 breast
DU-145 prostate = test system: DU-145 prostate
MDA-N = test system: MDA-N

SMILES | TGI (DLD-1 colon) [µM] | TGI (SF-295 CNS) [µM] | TGI (OVCAR-8 ovarian) [µM] | TGI (OVCAR-3 ovarian) [µM] | TGI (CCRF-CEM leukemia) [µM] | TGI (DMS 273 small cell lung) [µM] | TGI (OVCAR-4 ovarian) [µM] | TGI (LXFL 529 NSCLC) [µM] | TGI (MCF7 breast) [µM] | TGI (DU-145 prostate) [µM] | TGI (MDA-N) [µM] | GI50 (OVCAR-3 ovarian) [nM] | GI50 (CCRF-CEM leukemia) [µM] | GI50 (DMS 273 small cell lung) [µM] | GI50 (LXFL 529 NSCLC) [nM]
CCOC(=O)C1CCn2c(nc3c2c(=O)n(C)c(=O)n3C)S1 (stereo unspecified) | > 100 | > 100 | > 100 | > 100 | > 100 | > 100 | > 100 | > 100 |  |  |  |  |  |  | 
O=[N+]([O-])c1ccc2c(c1)c(N=NC(=S)NC1CCCCC1)c(O)n2CN1CCOCC1 |  | 16.6 | 17.4 | 20.4 | 2.75 |  | 17.9 |  | 17.4 | 26.8 | 20 |  |  |  | 
O=C(CCN1CC2CCC(CC2)C1)c1cccs1 |  | > 100 | 42.4 | 58 | 4.81 |  | > 74.6 |  | 29.4 | 33.8 | 34.7 |  |  |  | 
CCC(C)C1NC(=O)C2CCCN2C(=O)C(CC2CO2)OC(=O)CCNC(=O)C(C)N(C)C(=O)C(C(C)C)N(C)C1=O (stereo unspecified) |  |  | > 100 | > 100 |  |  | > 100 |  | > 100 | > 100 |  |  |  |  | 
CN1C2CCC1C(C(O)c1ccccc1[N+](=O)[O-])C(=O)C2 (stereo unspecified) |  | > 100 | > 100 | > 100 | > 100 |  | > 100 |  | > 100 | 86.8 | 75.7 |  |  |  | 
C/C(=N\NC(=O)c1cccnc1)c1cccc(/C(C)=N/NC(=O)c2cccnc2)n1 | > 100 | 20.5 | 19.3 | 47.3 | > 100 | 25.5 |  | > 100 |  |  |  | 2050 | 3.49 | 5.02 | 2470
O=[n+]1c2c(n([O-])c3ccccc31)-c1cccc3cccc-2c13 |  | > 100 | > 100 | > 100 | > 100 |  | > 100 |  | > 100 | > 100 | > 100 |  |  |  | 
COC(=O)C1C(C)N1C (stereo unspecified) | > 100 |  | > 100 | > 100 | > 100 | > 100 | > 100 | > 100 |  |  |  |  |  |  | 
C[C@]12CC[C@@H]3c4ccccc4CC[C@H]3[C@@H]1CC[C@@H]2O | > 100 | > 100 | > 100 | > 100 | > 100 | > 100 |  | > 100 |  |  |  |  |  |  | 
O=S(=O)(/N=C(\NO)Nc1ccc(Cl)cc1)c1ccc(S(=O)(=O)c2ccccc2)s1 |  | > 100 | 89.6 | 55.9 | 51.6 |  | 93.8 |  | > 100 | 46 |  |  |  |  | 
NCCNc1nc(N2CCCC2)c2nc(Cl)c(NCc3ccccc3)nc2n1 |  | 3.5 |  | 4.16 | 6.87 |  | 5.3 |  | 3.31 | 3.55 | 3.1 |  |  |  | 
NNC(=O)c1ccccc1Nc1ccccc1C(=O)NN |  | > 100 | > 100 | > 100 | > 100 |  | > 100 |  | > 100 | > 100 | > 100 |  |  |  | 
[O-][N+](CCO)(CCO)c1ncnc2nc[nH]c12 |  | > 100 | > 100 | > 100 | > 100 |  | > 100 |  | > 100 | > 100 | > 100 |  |  |  | 
COC(=O)C1C(O)CCC2CN3CCc4c([nH]c5cccc(OC)c45)C3CC21 (stereo unspecified) |  | > 100 | > 100 | > 100 | > 100 |  | > 100 |  | > 100 | > 100 | > 100 |  |  |  | 
OCCOCn1cc(Cn2ncc3c(SCc4ccccc4)ncnc32)nn1 |  | > 100 | > 100 | > 100 |  |  | > 100 |  | > 100 | > 100 | 37 |  |  |  | 
COc1c2c(cc3c1C(O)N1CC[C@]34[C@H]3O[C@H]3[C@H](OC)C[C@@H]14)OCO2 (stereo partly specified) |  | 71.7 | > 100 | 38.4 | 14.2 |  | > 100 |  | > 100 | > 100 | 67.8 |  |  |  | 
CC(=O)OC1CC(O)CC2=CCC3C4CCC(C(C)(O)C(O)CC5COC(=O)C5C)C4(C)CCC3C21C (stereo unspecified) |  | > 25 | > 25 | > 25 | > 25 |  | > 25 |  | > 25 | > 25 | > 25 |  |  |  | 
